Results: US20260199350A1, “FLAVONES, QUINOLINONES, QUINAZOLINONES, AND AURONES, AND USES IN CK2-MEDIATED DISEASES” (Salk Institute for Biological Studies, priority 2022, published 2026)
Values after ≈ are worked out from the molar mass of the structure shown. Like-named read-outs stand apart in the source and are kept apart here.

Experiments:
CK2A1 = target: T1, CK2A1 (Homo sapiens, UniProt P68400); test: Radiometric kinase assay (Eurofins), CK2A1; type: biochemical
T1 construct: purchased Eurofins
Source text: FIGS. 4A-4F characterize flavones for in vitro and in-cell CK2 inhibition. […] Representative of two independent experiments. […] Nonlinear fit was used to calculate IC50. […] Nonlinear fit was used to calculate IC50. […] Nonlinear fit was used to calculate IC50. […] Normalized to DMSO, data are representative of three independent experiments.
(§1) • ^1Radiometric kinase assay from Eurofins. Performed in astrocytes with a Promega Lumit IL-6 kit.

CK2A2 = target: T2, CK2A2 (Homo sapiens, UniProt P19784); test: Radiometric kinase assay (Eurofins), CK2A2; type: biochemical
T2 construct: purchased Eurofins
Source text: as §1

IL-6 secretion = IL-6 secretion assay in astrocytes (Promega Lumit IL-6 kit); type: cell-based, human; conditions: Homo sapiens, Astrocyte, read-out: IL6-Inhib.
Procedure: IL-6 secretion assay. HCAs were plated at 20,000 cells per well in white clear bottom 96-well plates. Two to three days later, media was removed and replaced with media containing 10 ng/mL IL1B and compound dilution series. Five hours later, plates were processed using the Lumit IL-6 Assay Kit (Promega W6030) according to the manufacturer's instructions.
• ^1Radiometric kinase assay from Eurofins. Performed in astrocytes with a Promega Lumit IL-6 kit. A series of halogenated flavones was generated and assayed (Table 3).

Aqueous solubility = type: physicochemical
[1] = Table 2, read-out: CK2A1 RAD IC50
[2] = Table 2, read-out: CK2A2 RAD IC50
[3] = Table 10, aurones, read-out: CK2A1 IC50
[4] = Table 10, aurones, read-out: CK2A2 IC50
[5] = Table 3, halogenated flavones, read-out: CK2A1 RAD IC50
[6] = Table 3, halogenated flavones, read-out: CK2A2 RAD IC50
[7] = aqueous (not further specified), Table 3, read-out: Aqueous Solubility

T1 sequence (P68400 whole entry): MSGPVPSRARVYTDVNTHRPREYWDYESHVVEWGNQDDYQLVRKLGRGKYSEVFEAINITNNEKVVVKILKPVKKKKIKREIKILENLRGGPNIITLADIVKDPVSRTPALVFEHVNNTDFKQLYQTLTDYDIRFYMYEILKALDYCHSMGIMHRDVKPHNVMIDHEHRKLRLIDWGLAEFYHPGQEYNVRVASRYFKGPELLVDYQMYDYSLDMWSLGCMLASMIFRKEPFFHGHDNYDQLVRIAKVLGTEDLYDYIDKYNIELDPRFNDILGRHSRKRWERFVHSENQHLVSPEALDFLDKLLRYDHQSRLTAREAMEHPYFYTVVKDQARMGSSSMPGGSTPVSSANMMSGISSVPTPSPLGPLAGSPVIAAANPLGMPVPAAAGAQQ
T2 sequence (P19784 whole entry): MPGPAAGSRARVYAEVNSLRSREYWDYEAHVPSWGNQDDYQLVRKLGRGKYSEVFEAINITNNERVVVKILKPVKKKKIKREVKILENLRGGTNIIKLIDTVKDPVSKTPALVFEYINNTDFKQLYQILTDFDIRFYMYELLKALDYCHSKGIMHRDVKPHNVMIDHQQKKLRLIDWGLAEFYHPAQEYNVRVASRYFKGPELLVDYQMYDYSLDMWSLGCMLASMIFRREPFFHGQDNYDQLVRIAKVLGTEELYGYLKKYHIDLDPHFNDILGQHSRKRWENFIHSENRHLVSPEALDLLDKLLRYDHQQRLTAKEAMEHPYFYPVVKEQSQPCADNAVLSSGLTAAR

Row | Structure (SMILES) | IC50 (CK2A1; [1]) [nM] | IC50 (CK2A2; [2]) [nM] | IC50 (IL-6 secretion; Table 2, astrocytes) [nM] | IC50 (CK2A1; [3]) [nM] | IC50 (CK2A2; [4]) [nM] | IC50 (IL-6 secretion; Table 10) [nM] | solubility (Aqueous solubility; Table 10, read-out: Solubility) [µM] | also measured
1 | O=c1cc(-c2ccc(O)c(Br)c2)oc2c(Br)cc(Br)cc12 [JKT.464A] | 19 | 3 | 5000 |  |  |  |  | 
2 | O=C1/C(=C/c2ccc(O)cc2)Oc2c(Br)cc(Br)cc21 [JKT.629A] |  |  |  | > 5000 | > 5000 | 7900 | 5.6 (≈ 2.22 µg/mL) | 
3 | COc1cc(/C=C2\Oc3c(Br)cc(Br)cc3C2=O)ccc1O [JKT.630A] |  |  |  | 211 | 274 | 9800 | 3 (≈ 1.28 µg/mL) | 
4 | O=C1/C(=C/c2cccc(O)c2)Oc2c(Br)cc(Br)cc21 [JKT.631A] |  |  |  | > 5000 | > 5000 | > 10000 | 22.6 (≈ 8.95 µg/mL) | 
5 | N#Cc1ccc(/C=C2\Oc3c(Br)cc(Br)cc3C2=O)cc1 [JKT.632A] |  |  |  | > 5000 | > 5000 | 10000 | > 200 | 
6 | O=C1/C(=C/c2ccc(-c3nnn[nH]3)cc2)Oc2c(Br)cc(Br)cc21 [JKT.633A] |  |  |  | > 5000 | > 5000 | > 10000 | 102 (≈ 45.8 µg/mL) | 
7 | O=C1/C(=C/c2ccc(O)c(Br)c2)Oc2c(Br)cc(Br)cc21 [JKT.634A] |  |  |  | 22 | 46 | 2000 | 25.5 (≈ 12.1 µg/mL) | Inhibition of CK2A1 (CK2A1; in words): potent inhibition of both; Inhibition of CK2A2 (CK2A2; in words): potent inhibition of both
8 | O=C1/C(=C/c2ccc(O)c(C(F)(F)F)c2)Oc2c(Br)cc(Br)cc21 [JKT.635A] |  |  |  | 531 | 213 | 1800 | 22 (≈ 10.2 µg/mL) | 
9 | O=C(O)c1ccc(/C=C2\Oc3c(Br)cc(Br)cc3C2=O)cc1 [JKT.636A] |  |  |  | 537 | 62 | > 10000 | > 200 | Window of selectivity for CK2A2 over CK2A1 (CK2A2): nine-fold
10 | O=C1/C(=C/c2ccco2)Oc2c(Br)cc(Br)cc21 [JKT.637A] |  |  |  | > 5000 | > 5000 | > 10000 | 52.4 (≈ 19.4 µg/mL) | 
11 | O=C1/C(=C/c2ccoc2)Oc2c(Br)cc(Br)cc21 [JKT.638A] |  |  |  | > 5000 | > 5000 | > 10000 | 30.2 (≈ 11.2 µg/mL) | 
12 | O=c1cc(-c2ccc(O)c(Br)c2)oc2c(Br)cc(Cl)cc12 [JKT.714A] |  |  |  |  |  |  |  | IC50 (CK2A1; [5]): 12 nM; IC50 (CK2A2; [6]): 8 nM; IC50 (IL-6 secretion; Table 3): 4600 nM; solubility (Aqueous solubility; [7]): 35.2 µM (≈ 15.2 µg/mL)
13 | O=c1cc(-c2ccc(O)c(Br)c2)oc2c(Cl)cc(Cl)cc12 [JKT.715A] |  |  |  |  |  |  |  | IC50 (CK2A1; [5]): 18 nM; IC50 (CK2A2; [6]): 16 nM; IC50 (IL-6 secretion; Table 3): 4100 nM; solubility (Aqueous solubility; [7]): 120 µM (≈ 46.2 µg/mL)
14 | O=c1cc(-c2ccc(O)c(Cl)c2)oc2c(Br)cc(Br)cc12 [JKT.721A] |  |  |  |  |  |  |  | IC50 (CK2A1; [5]): 10 nM; IC50 (CK2A2; [6]): 5 nM; IC50 (IL-6 secretion; Table 3): 2600 nM; solubility (Aqueous solubility; [7]): 19.6 µM (≈ 8.44 µg/mL)
15 | O=c1cc(-c2ccc(O)c(Cl)c2)oc2c(Br)cc(Cl)cc12 [JKT.722A] |  |  |  |  |  |  |  | IC50 (CK2A1; [5]): 10 nM; IC50 (CK2A2; [6]): 7 nM; IC50 (IL-6 secretion; Table 3): 2200 nM; solubility (Aqueous solubility; [7]): 27.5 µM (≈ 10.6 µg/mL)
16 | O=c1cc(-c2ccc(O)c(I)c2)oc2c(Br)cc(Br)cc12 [JKT.724A] |  |  |  |  |  |  |  | IC50 (CK2A1; [5]): 19 nM; IC50 (CK2A2; [6]): 7 nM; IC50 (IL-6 secretion; Table 3): 3800 nM; solubility (Aqueous solubility; [7]): 11.2 µM (≈ 5.85 µg/mL)

The next lines start with results.

Row | IC50 (CK2A1; [1]) [nM] | IC50 (CK2A2; [2]) [nM] | IC50 (IL-6 secretion; Table 2, astrocytes) [nM] | IC50 (CK2A1; [3]) [nM] | IC50 (CK2A2; [4]) [nM] | IC50 (IL-6 secretion; Table 10) [nM] | solubility (Aqueous solubility; Table 10, read-out: Solubility) [µM] | Structure (SMILES) | also measured
17 | 134 | 45 | 4900 |  |  |  |  | O=c1cc(-c2cc(Cl)c(O)c(Cl)c2)oc2c(Br)cc(Br)cc12 [JKT.465A] | 
18 | > 5000 | 2060 | > 10000 |  |  |  |  | Cc1cc(-c2cc(=O)c3cc(Br)cc(Br)c3o2)ccc1O [JKT.475A] | 
19 | 9 | 4 | 3500 |  |  |  |  | COc1nc(-c2cc(=O)c3cc(Br)cc(Br)c3o2)ccc1O [JKT.606A] | 
20 | 5 | 8 | 2000 |  |  |  |  | COc1nc(-c2cc(=O)c3cccc(Br)c3o2)ccc1O [JKT.666A] | 
21 | 7 | 5 | 2900 |  |  |  |  | COc1nc(-c2cc(=O)c3cc(Cl)cc(Br)c3o2)ccc1O [JKT.669A] | 
22 | 17 | 8 | 3600 |  |  |  |  | COc1nc(-c2cc(=O)c3cc(Cl)cc(Cl)c3o2)ccc1O [JKT.678A] | 
23 | 247 | 49 | 8600 |  |  |  |  | COc1cc(-c2cc(=O)c3cc(Br)c(OC)c(Br)c3o2)ccc1O [JKT.706A] | 
